Data set [1] relates to Staphylococcus aureus. The data set is described as follows: Antibacterial activity against methicillin-resistant Staphylococcus aureus OC2878 assessed as inhibition of bacterial regrowth at 16 times MIC after 24 hrs by dynamic time kill study. The data set is classed as functional, organism-based.
Data set [2] deals with Staphylococcus aureus. The data set is described as follows: Antibacterial activity against methicillin-resistant Staphylococcus aureus OC2878 assessed as log reduction in bacterial count at 8 times MIC after 24 hrs by time kill study. It counts as functional.
The subject of data set [3] is Staphylococcus aureus. Description: Antibacterial activity against methicillin-resistant Staphylococcus aureus OC2878 by broth macrodilution method.
The subject of data set [4] is Staphylococcus aureus. The data set is described as follows: Antibacterial activity against methicillin-resistant Staphylococcus aureus OC2878 assessed as inhibition of bacterial regrowth at 16 times MIC after 8 hrs by dynamic time kill study. The data set is classed as functional, organism-based.
Data set [5] in a line: Chemical stability of the compound assessed as compound degradation at 16 times MIC after 24 hrs by RP-HPLC analysis. The data set is classed as physicochemical.

In brackets after ≈: the same amount, converted by molar mass. Activity calls are given as the source filed them.

From ChEMBL document CHEMBL1649295, “Pharmacokinetic-pharmacodynamic modeling of the in vitro activities of oxazolidinone antimicrobial agents against methicillin-resistant Staphylococcus aureus” (Antimicrob Agents Chemother, 2009) come the findings set out here.

Turning to `CC(=O)NC[C@H]1CN(c2ccc(N3Cc4cn(C)nc4C3)c(F)c2)C(=O)O1`, the inhibition entry in the data set with Staphylococcus aureus [1] was “Active”. For the same molecule, the log10cfu with Staphylococcus aureus [2] was 2. Further, in the data set with Staphylococcus aureus [3], the MIC (as a rule, the smallest concentration in the dilution series that meets the test's criterion for growth inhibition) amounted to 0.5 µg/mL (≈ 1.34 µM).
With `CC(=O)NC[C@H]1CN(c2ccc(N3CCOCC3)c(F)c2)C(=O)O1` [LINEZOLID], the inhibition entry in the data set on Staphylococcus aureus [4] is “inactive”. The Stability result in data set [5] is given as “Stable”. In addition, the log10cfu in the data set on Staphylococcus aureus [2] was 2. Further, in the data set with Staphylococcus aureus [3], the lowest concentration to inhibit growth (MIC) was 1 µg/mL (≈ 2.96 µM).
